Measurements published in paper PMC6934184, “Selective DNA-PKcs inhibition extends the therapeutic index of localized radiotherapy and chemotherapy” (The Journal of Clinical Investigation, 2019).

Target: T1, WEE1 (Homo sapiens, UniProt P30291)
T1 construct: purchased Thermo Fisher Scientific (Life Technologies) SelectScreen
Assay: SelectScreen LanthaScreen
Assay type: binding
Conditions: read-out: % displacement
Procedure, shortened: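 NU5455 was profiled across the SelectScreen Broad panel of kinase activity and binding assays. Z'LYTE reactions such as CSF1R ran at apparent Km ATP, while the Adapta CAMK1 assay used ATP listed as 10. Values are given as percent.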

T1 sequence (P30291 whole entry): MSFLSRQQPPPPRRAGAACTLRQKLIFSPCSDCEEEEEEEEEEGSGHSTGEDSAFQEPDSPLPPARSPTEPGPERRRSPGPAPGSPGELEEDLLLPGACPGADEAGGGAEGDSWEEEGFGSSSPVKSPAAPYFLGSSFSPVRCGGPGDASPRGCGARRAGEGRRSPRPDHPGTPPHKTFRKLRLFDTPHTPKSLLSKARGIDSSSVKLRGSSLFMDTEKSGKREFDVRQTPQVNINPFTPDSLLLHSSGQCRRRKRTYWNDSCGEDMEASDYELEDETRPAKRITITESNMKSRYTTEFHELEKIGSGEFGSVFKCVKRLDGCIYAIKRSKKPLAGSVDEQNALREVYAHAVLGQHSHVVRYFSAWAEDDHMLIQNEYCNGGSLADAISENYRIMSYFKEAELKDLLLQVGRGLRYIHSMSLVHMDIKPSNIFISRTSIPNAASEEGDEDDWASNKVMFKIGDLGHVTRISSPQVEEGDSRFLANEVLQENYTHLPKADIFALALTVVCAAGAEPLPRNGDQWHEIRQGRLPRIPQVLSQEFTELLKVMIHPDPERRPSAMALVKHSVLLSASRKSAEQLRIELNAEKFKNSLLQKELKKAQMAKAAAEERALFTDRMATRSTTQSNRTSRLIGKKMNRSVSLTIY

CN(C(=O)CN1CCOCC1)c1ccc2sc3c(-c4cccc5c(=O)cc(N6CC7CCC(C6)O7)oc45)cccc3c2c1 [NU5455]
inhibition at 1 µM: 18.2%
